Results as given in US20230002357A1, “7-PYRIMIDINE-2-YL-OXY-INDAZOLE DERIVATIVES AND THEIR USE AS HERBICIDES” (SYNGENTA CROP PROTECTION AG, priority 2019, published 2023).

Legend:
Format in all cases: in vivo
Conditions in all cases: 250 g/ha, evaluated after 13 days
[1] = system: IPOHE; assay: Pre-emergence Test, glasshouse, IPOHE
Summary of the method: (§1)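 Spray: 250 g/ha (unless stated), acetone/water 50:50 + 0.5% Tween 20; pre-em 1 d, post-em 8 d after sowing. Glasshouse 24/16 °C, 14 h light, 65% RH, watered twice daily. Damage read at 13 d on 5-point scale.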

[2] = system: Setaria faberi (SETFA); assay: Pre-emergence Test, glasshouse, SETFA
Summary of the method: as §1

[3] = system: IPOHE; assay: Post-emergence Test, glasshouse, IPOHE
Summary of the method: as §1

[4] = system: Amaranthus retoflexus (AMARE); assay: Post-emergence Test, glasshouse, AMARE
Summary of the method: as §1

[5] = system: Amaranthus retoflexus (AMARE); assay: Pre-emergence Test, glasshouse, AMARE
Summary of the method: as §1

[6] = system: Echinochloa crus-galli (ECHCG); assay: Pre-emergence Test, glasshouse, ECHCG
Summary of the method: as §1

[7] = system: ABUTH; assay: Pre-emergence Test, glasshouse, ABUTH
Summary of the method: as §1

[8] = system: Setaria faberi (SETFA); assay: Post-emergence Test, glasshouse, SETFA
Summary of the method: as §1

[9] = system: Echinochloa crus-galli (ECHCG); assay: Post-emergence Test, glasshouse, ECHCG
Summary of the method: as §1

[10] = system: ABUTH; assay: Post-emergence Test, glasshouse, ABUTH
Summary of the method: as §1

Compound | percentage damage caused to the plant, five-point scale, IPOHE [1] | percentage damage caused to the plant, five-point scale, SETFA [2] | percentage damage caused to the plant, five-point scale, IPOHE [3] | percentage damage caused to the plant, five-point scale, AMARE [4] | percentage damage caused to the plant, five-point scale, AMARE [5] | percentage damage caused to the plant, five-point scale, ECHCG [6] | percentage damage caused to the plant, five-point scale, ABUTH [7] | percentage damage caused to the plant, five-point scale, SETFA [8] | percentage damage caused to the plant, five-point scale, ECHCG [9] | percentage damage caused to the plant, five-point scale, ABUTH [10]
Cc1ccc2cnn(CCCC(F)(F)F)c2c1Oc1ncc(Cl)cn1 [Compound 1.044] | 1 (1=0-20%) | 3 (3=41-60%) | 1 (1=0-20%) | 1 (1=0-20%) | 2 (2=21-40%) | 3 (3=41-60%) | 1 (1=0-20%) | 1 (1=0-20%) | 1 (1=0-20%) | 1 (1=0-20%)
FC(F)(F)CCCn1ncc2cccc(Oc3ncc(Cl)cn3)c21 [Compound 1.001, 7-(5-chloropyrimidin-2-yl)oxy-1-(4,4,4-trifluorobutyl)indazole] | 1 (1=0-20%) | 5 (5=81-100%) | 1 (1=0-20%) | 2 (2=21-40%) | 4 (4=61-80%) | 5 (5=81-100%) | 4 (4=61-80%) | 4 (4=61-80%) | 3 (3=41-60%) | 4 (4=61-80%)
FC(F)OCCn1nc(Cl)c2cccc(Oc3ncc(Cl)cn3)c21 [Compound 1.051] | 2 (2=21-40%) | 5 (5=81-100%) | 3 (3=41-60%) | 5 (5=81-100%) | 5 (5=81-100%) | 4 (4=61-80%) | 3 (3=41-60%) | 4 (4=61-80%) | 4 (4=61-80%) | 4 (4=61-80%)
C=C(C)Cn1nc(Cl)c2cccc(Oc3ncc(Cl)cn3)c21 [Compound 1.064] | 1 (1=0-20%) | 1 (1=0-20%) | 1 (1=0-20%) | 2 (2=21-40%) | 1 (1=0-20%) | 1 (1=0-20%) | 1 (1=0-20%) | 1 (1=0-20%) | 1 (1=0-20%) | 2 (2=21-40%)
FC(F)(F)CCCn1nc(Br)c2cccc(Oc3ncc(Cl)cn3)c21 [Compound 1.006, 3-bromo-7-(5-chloropyrimidin-2-yl)oxy-1-(4,4,4-trifluorobutyl)indazole] | 1 (1=0-20%) | 5 (5=81-100%) | 2 (2=21-40%) | 5 (5=81-100%) | 5 (5=81-100%) | 5 (5=81-100%) | 2 (2=21-40%) | 4 (4=61-80%) | 5 (5=81-100%) | 5 (5=81-100%)
FC(F)(F)CCCn1ncc2ccc(Br)c(Oc3ncc(Cl)cn3)c21 [Compound 1.036] | 1 (1=0-20%) | 1 (1=0-20%) | 1 (1=0-20%) | 1 (1=0-20%) | 1 (1=0-20%) | 1 (1=0-20%) | 1 (1=0-20%) | 1 (1=0-20%) | 1 (1=0-20%) | 1 (1=0-20%)
FCCCCn1nc(Cl)c2cccc(Oc3ncc(Cl)cn3)c21 [Compound 1.039] | 1 (1=0-20%) | 5 (5=81-100%) | 4 (4=61-80%) | 5 (5=81-100%) | 5 (5=81-100%) | 5 (5=81-100%) | 3 (3=41-60%) | 4 (4=61-80%) | 4 (4=61-80%) | 4 (4=61-80%)
